Test systems include DMS 273 small cell lung; KM20L2 colon; HOP-18 NSCLC; LXFL 529 NSCLC; DLD-1 colon; DMS 114 small cell lung; MDA-N; RXF-631 renal; XF 498 CNS; SN12K1 renal.
What all share (assay): NCI tumour cell line growth inhibition, 48 h

Values joined by “and” are separate entries in the source; they are usually repeats but may differ in a detail not shown here. Equal entries are not always repeated.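 Assay format: 96-well plates, 48-hour exposure. At the GI50, growth is halved. At the TGI there is no net growth.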

Consider `CCOC(=O)NC/C=C/COC1CCCCO1` (stereo unspecified), for which the TGI in the assay on DMS 273 small cell lung, with KM20L2 colon, with HOP-18 NSCLC, in the assay with LXFL 529 NSCLC, with DLD-1 colon and in the assay with DMS 114 small cell lung was greater than 100 µM in each case.

With `COC(=O)c1ccccc1N1C(=O)Cc2ccccc2C1=O`, the TGI with DMS 273 small cell lung, in the assay with KM20L2 colon, with LXFL 529 NSCLC and in the assay with DMS 114 small cell lung was greater than 100 µM throughout.

With `O=C(OC1CCC2OOC1O2)c1ccc([N+](=O)[O-])cc1` (stereo unspecified), the TGI with DMS 273 small cell lung, in the assay on KM20L2 colon and with DMS 114 small cell lung was greater than 100 µM in each case.

As for `Cc1ccc(-c2cc3c4c(nc5ccccc53)C(=O)c3cccnc3-c4n2)cc1`, in the assay on MDA-N, the GI50 is 3.27 µM and the TGI was determined as 10.3 µM.

For the compound `NC1CCCCC1N.O=[Se]([O-])[O-].[Pt+4]` (stereo unspecified), the GI50 in the assay with KM20L2 colon was 0.233 µM; in the assay on HOP-18 NSCLC, 27 µM; in the assay on LXFL 529 NSCLC, 6.25 µM; with DLD-1 colon, 1.81 µM. For the same compound, the TGI with KM20L2 colon is 26.9 µM; in the assay with HOP-18 NSCLC it was greater than 100 µM; with LXFL 529 NSCLC, greater than 100 µM; in the assay on DLD-1 colon it was greater than 83.8 µM.

`CC1(C)CC[C@]2(C(=O)O)CC[C@]3(C)C(=CC[C@@H]4[C@@]5(C)C[C@H](O)[C@H](O)[C@@](C)(C(=O)O)[C@@H]5CC[C@]43C)[C@@H]2C1`: in the assay with MDA-N, the TGI was greater than 100 µM.

As to `O=[N+]([O-])c1cc([N+](=O)[O-])c(/C=C/c2ccc(Cl)c(Cl)c2)cc1/C=C/c1ccc(Cl)c(Cl)c1`, the TGI with DMS 273 small cell lung was 96.4 µM; in the assay on KM20L2 colon, 81 µM; in the assay on LXFL 529 NSCLC, 56.1 µM; in the assay on DMS 114 small cell lung it was 68.1 µM.

With `O=C(NC(=O)c1ccccc1[N+](=O)[O-])Nc1ccc(Oc2ncc(Cl)cn2)c([N+](=O)[O-])c1`, the TGI in the assay with RXF-631 renal was greater than 100 µM; in the assay with DMS 273 small cell lung it was greater than 100 µM; in the assay with KM20L2 colon, 0.383 µM; in the assay on HOP-18 NSCLC it was greater than 100 µM; in the assay with LXFL 529 NSCLC, greater than 100 µM; with DLD-1 colon, greater than 100 µM. Besides, the TGI in the assay with DMS 114 small cell lung was 0.359 µM.

Take `O=C(NCc1cccnc1)C1COc2cc(-c3cc(=O)c4ccccc4o3)ccc2O1` (stereo unspecified): the TGI with XF 498 CNS is 72.1 µM; with RXF-631 renal, greater than 100 µM; in the assay with KM20L2 colon, greater than 100 µM; with HOP-18 NSCLC, greater than 100 µM; in the assay with LXFL 529 NSCLC, greater than 100 µM; in the assay with DLD-1 colon, greater than 100 µM. In the assay on DMS 114 small cell lung, this compound yielded a TGI greater than 79.5 µM.

As to `CCc1nc(N)nc(N)c1-c1ccc2nnn(O)c2c1`, in the assay on MDA-N, the TGI is greater than 100 µM.

On to `COc1cc(O)c2c(c1)O[C@@H]1OCC[C@H]21`, for which the TGI in the assay with XF 498 CNS, in the assay with DMS 273 small cell lung, with KM20L2 colon, in the assay on HOP-18 NSCLC, in the assay with LXFL 529 NSCLC and with DLD-1 colon was greater than 100 µM each time. The same compound returned a TGI in the assay with DMS 114 small cell lung greater than 100 µM.

As for `Cc1cc(C)n(-c2ccnc3cc(Cl)ccc23)n1`, the TGI in the assay on XF 498 CNS, in the assay with DMS 273 small cell lung, in the assay on KM20L2 colon, in the assay on HOP-18 NSCLC, in the assay on LXFL 529 NSCLC and with DLD-1 colon was greater than 100 µM throughout. For the same compound, the TGI in the assay on DMS 114 small cell lung was greater than 100 µM.

As to `O=C(O)C(C(=O)O)P(=S)(S)c1ccccc1` (stereo unspecified), the TGI in the assay with XF 498 CNS, in the assay with RXF-631 renal, in the assay with DMS 273 small cell lung, in the assay on MDA-N, with KM20L2 colon and in the assay on LXFL 529 NSCLC was greater than 100 µM throughout. The TGI in the assay with DLD-1 colon and in the assay on DMS 114 small cell lung was greater than 100 µM throughout.

In the case of `C(=N\Nc1ccccc1)/c1nc2ccccc2nc1/C=N/Nc1ccccc1`, the TGI is 27.6 µM with RXF-631 renal, 26.5 µM in the assay with KM20L2 colon, 23 µM in the assay on LXFL 529 NSCLC and 40.9 µM in the assay on DLD-1 colon.

Regarding `COc1cc2c(c(OC)c1OC)-c1ccc(OC)c(=O)cc1[C@@H](NC(C)=O)CC2`, the TGI in the assay with RXF-631 renal was greater than 91.2 µM; in the assay on MDA-N, 0.833 µM; in the assay with SN12K1 renal, 0.00625 µM and < 0.0625 µM; in the assay on KM20L2 colon, 0.00625 µM and 0.036 µM and < 0.0625 µM; in the assay with DLD-1 colon, greater than 625 µM; with DMS 114 small cell lung it was 0.0724 µM. Moreover, the GI50 was 0.00298 µM in the assay with SN12K1 renal; 0.00285 µM and 0.018 µM in the assay with KM20L2 colon; 0.0176 µM in the assay on DLD-1 colon.

With `CC1(Br)CC2OC3(Br)C=CC(C)(O)C2(CC1=O)C3(C)C` (stereo unspecified), the TGI in the assay on XF 498 CNS, in the assay with DMS 273 small cell lung, in the assay with KM20L2 colon, in the assay on HOP-18 NSCLC, with LXFL 529 NSCLC and in the assay on DLD-1 colon was greater than 100 µM throughout. This compound also had a TGI in the assay on DMS 114 small cell lung greater than 100 µM.

For `COC(=O)C1=COC(C)C2CN3CCc4c([nH]c5cc(OC)c(OC)cc45)C3CC12` (stereo unspecified), in the assay on MDA-N, the TGI is greater than 100 µM.

For the compound `Nc1nc(Cl)cc(NCC(O)CO)n1` (stereo unspecified), the TGI with XF 498 CNS, in the assay on DMS 273 small cell lung, in the assay on KM20L2 colon, in the assay on HOP-18 NSCLC, in the assay with LXFL 529 NSCLC and in the assay on DLD-1 colon was greater than 100 µM each time. The compound also came in with a TGI in the assay on DMS 114 small cell lung greater than 100 µM.

With `CCOC(=O)Cc1csc(Nc2ccc(OCC)cc2)n1`, the TGI with XF 498 CNS, in the assay on RXF-631 renal, in the assay on KM20L2 colon, in the assay on HOP-18 NSCLC, in the assay with LXFL 529 NSCLC and in the assay on DLD-1 colon was greater than 100 µM each time. The compound also gave a TGI in the assay on DMS 114 small cell lung greater than 100 µM.

In the assay on MDA-N, `C[C@@H]1CCC([C@@H](C)[C@H]2CC[C@H]3[C@@H]4CC[C@H]5C[C@@H](O)CC[C@]5(C)[C@H]4CC[C@]23C)=NC1` had a TGI greater than 100 µM.

Source of the values: PubChem BioAssay (NCI).
